Source: PubChem BioAssay (NCI)
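1) Cells in 96-well plates. 2) Compound, 48 h, 5 concentrations. 3) Linear interpolation between surrounding doses. 4) Unreached endpoint = highest concentration. GI50: concentration for 50% inhibition of growth. At the TGI there is no net growth.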

Key:
Assay in all cases: NCI anticancer screen, dose series, 48 h
MDA-MB-231 breast = system: MDA-MB-231 breast
ACHN renal = system: ACHN renal
SF-539 CNS = system: SF-539 CNS
OVCAR-5 ovarian = system: OVCAR-5 ovarian
HOP-92 NSCLC = system: HOP-92 NSCLC
RPMI-8226 leukemia = system: RPMI-8226 leukemia
TK-10 renal = system: TK-10 renal
DU-145 prostate = system: DU-145 prostate
A549 NSCLC = system: A549 NSCLC
UO-31 renal = system: UO-31 renal
SK-OV-3 ovarian = system: SK-OV-3 ovarian
SNB-19 CNS = system: SNB-19 CNS
A498 renal = system: A498 renal
UACC-257 melanoma = system: UACC-257 melanoma
786-0 renal = system: 786-0 renal
NCI/ADR-RES ovarian = system: NCI/ADR-RES ovarian
SK-MEL-28 melanoma = system: SK-MEL-28 melanoma

Cc1n(Cc2ccc3ccccc3c2)c2ccccc2[n+]1Cc1ccc2ccccc2c1
GI50 (MDA-MB-231 breast): 1330 nM
TGI (MDA-MB-231 breast): 2710 nM
GI50 (ACHN renal): 2460 nM
TGI (ACHN renal): 6490 nM
GI50 (SF-539 CNS): 1530 nM
TGI (SF-539 CNS): 2910 nM
GI50 (OVCAR-5 ovarian): 1420 nM
TGI (OVCAR-5 ovarian): 2820 nM
GI50 (HOP-92 NSCLC): 31.7 nM
TGI (HOP-92 NSCLC): 2060 nM
GI50 (RPMI-8226 leukemia): 29.1 nM
TGI (RPMI-8226 leukemia): 1480 nM
GI50 (TK-10 renal): 1550 nM
TGI (TK-10 renal): 3030 nM
GI50 (DU-145 prostate): 1630 nM
TGI (DU-145 prostate): 3040 nM
GI50 (A549 NSCLC): 1760 nM
TGI (A549 NSCLC): 3400 nM
GI50 (UO-31 renal): 1500 nM
TGI (UO-31 renal): 2870 nM
GI50 (SK-OV-3 ovarian): 1650 nM
TGI (SK-OV-3 ovarian): 3110 nM
GI50 (SNB-19 CNS): 1350 nM
TGI (SNB-19 CNS): 2770 nM
GI50 (A498 renal): 1350 nM
TGI (A498 renal): 2880 nM
GI50 (UACC-257 melanoma): 1240 nM
TGI (UACC-257 melanoma): 2790 nM
GI50 (786-0 renal): 1750 nM
TGI (786-0 renal): 3320 nM
GI50 (NCI/ADR-RES ovarian): 19200 nM
TGI (NCI/ADR-RES ovarian): 87600 nM
GI50 (SK-MEL-28 melanoma): 1540 nM
TGI (SK-MEL-28 melanoma): 3180 nM
